In US5462952A, “Fenamate 1,3,4-thiadiazoles and 1,3,4-oxadiazoles as antiinflammatory agents” (Warner-Lambert Company, priority 1993, dated 1995) one finds IC50 and ED40 data, which are given here for 2 compounds.

One experiment has as its target T1, 5-Lipoxygenase (Rattus norvegicus, UniProt P12527).
T1 construct: host or cells: RBL-1 (rat basophilic leukemia)
T1 sequence (P12527 1-673): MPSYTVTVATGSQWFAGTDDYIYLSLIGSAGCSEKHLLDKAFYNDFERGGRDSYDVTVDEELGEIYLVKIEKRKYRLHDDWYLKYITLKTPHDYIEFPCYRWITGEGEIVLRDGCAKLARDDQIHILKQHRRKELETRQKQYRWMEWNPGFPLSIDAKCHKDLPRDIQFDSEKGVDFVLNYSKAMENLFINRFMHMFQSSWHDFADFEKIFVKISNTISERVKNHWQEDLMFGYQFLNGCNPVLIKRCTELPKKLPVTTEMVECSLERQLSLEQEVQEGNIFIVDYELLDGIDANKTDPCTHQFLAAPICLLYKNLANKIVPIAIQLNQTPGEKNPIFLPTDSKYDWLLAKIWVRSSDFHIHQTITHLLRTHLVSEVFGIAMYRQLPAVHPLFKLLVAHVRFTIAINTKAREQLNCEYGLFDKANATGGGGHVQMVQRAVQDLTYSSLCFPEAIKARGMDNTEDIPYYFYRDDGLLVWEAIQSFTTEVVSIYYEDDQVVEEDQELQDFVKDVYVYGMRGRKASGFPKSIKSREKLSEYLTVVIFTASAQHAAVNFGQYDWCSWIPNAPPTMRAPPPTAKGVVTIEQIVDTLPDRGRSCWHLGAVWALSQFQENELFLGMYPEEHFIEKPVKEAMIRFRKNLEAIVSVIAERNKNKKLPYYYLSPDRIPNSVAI
Description: ARBL whole cell 5-lipoxygenase assay (LTB4 formation in RBL-1 cells, A23187-stimulated). Format: cell-based. The conditions noted are these: Table 2. On the procedure:
(§1) The rat basophilic leukemia cell line (RBL-1) was obtained from the American Type Culture Collection (Rockville, Md.).
(§2) Radioimmunoassay (RIA) kits of LTB4 and PGF2α were obtained from Amersham (Arlington Heights, Ill.) and Seragen (Boston, Mass.), respectively.
(§3) RBL-1 cells are grown in suspension culture in Eagle's minimum essential medium supplemented with 12% fetal bovine serum at 37° C. in an incubator supplied with air-5% carbon dioxide. Cells are harvested by centrifugation. They are washed with cold phosphate buffered saline pH 7.4 (PBS; NaCl, 7.1 g; Na2 HPO4, 1.15 g; KH2 PO4, 0.2 g; and KCl, 0.2 g/l). Cells are finally suspended in PBS containing 1.0 mM calcium at a density of 2×10^6 cells/ml. Cells are incubated with and without test agent (in DMSO) (1% DMSO is without effect on arachidonic acid metabolism) for ten minutes at room temperature. Calcium ionophore A23187 (5 μM) is added and cells are incubated for seven minutes at 37° C. The reaction is stopped by chilling the tubes on ice for ten minutes. Cells are separated by centrifugation and the supernatant is stored at -20°. Aliquots (100 μl) are analyzed for LTB4 and PGF2α using radioimmunoassay kits as provided by the supplier.
(§4) Tables 1 and 2 contain biochemical data obtained from the whole cell assay described above as IC50 s which are calculated as the concentration of test compound causing 50% inhibition of LTB4 or PGF2α formation. Table 2 also provides the dose at which 40% of swelling is inhibited in the CFE-2 assay.

The test system of another experiment is Cyclooxygenase. Description: ARBC whole cell cyclooxygenase assay (PGF2α formation in RBL-1 cells, A23187-stimulated). Format: cell-based, rat. As to conditions: Table 2. How it is done:
as §1, §2, §3, §4

Experiment [1] relates to Carrageenan-Induced Rat Foot Paw Edema. Description: Carrageenan-Induced Rat Foot Paw Edema-2 (CFE-2) Assay. It counts as in vivo. The conditions noted are these: 5 h, Table 2, dosed one hour before carrageenan, edema at five hours, probit analysis, read-out: CFE, ID40 (dose at which 40% inhibition of swelling occurs). On the procedure:
Carrageenan solution (1% w/v) is prepared by dissolving 100 mg carrageenan (Marine Colloidal Div., Springfield, N.J.) in 10 ml of sterile saline (0.9%) solution (Travenol). The solution is vortexed for 30 to 45 minutes. Animals are dosed with compound one hour before carrageenan challenge. Foot paw edema is induced by injecting 0.10 ml of the 1% carrageenan subcutaneously into the plantar portion of the right hind paw of each rat under light anesthesia. Initial foot paw volume is measured immediately following carrageenan challenge using mercury plethysmography (Buxco Electronics). Edema is measured five hours after carrageenan. The difference between the 5-hour and the initial paw volume is expressed as delta edema. The delta edema for each test group of animals is used to calculate the percent inhibition of edema achieved by the compound at the test dose compared with the vehicle control group. The data in Table 1 (the dose at which swelling is inhibited by the noted) is calculated by probit analysis for the dose at which 40% inhibition occurs.
as §4

Structures are written as SMILES.

The IC50 is the point on the concentration scale where inhibition reaches its midpoint. As to `FC(F)(F)c1cccc(Nc2ccccc2-c2n[nH]c(=S)o2)c1` [Example 6, 5-[2-[[3-(Trifluoromethyl)phenyl]amino]phenyl]-1,3,4-oxadiazol-2(3H)-thione], the IC50 against 5-Lipoxygenase turned out to be 770 nM; in the experiment on Cyclooxygenase it was 270 nM. The ED40 in experiment [1] amounted to 8.5 mg/kg.

Regarding `FC(F)(F)c1cccc(Nc2ccccc2-c2n[nH]c(=S)s2)c1` [Example 12, 5-[2-[(3-Trifluoromethylphenyl)amino]phenyl]-1,3,4-thiadiazole-2(3H)-thione], the IC50 on 5-Lipoxygenase was 870 nM; with Cyclooxygenase it was 850 nM. Besides, in experiment [1], the ED40 worked out at 4.7 mg/kg.
